# In patent publication US9309213B2, “C-3 substituted bicyclooctane based HIV protease inhibitors” (Purdue Research Foundation, priority 2011, dated 2016):
# pIC50, pKi: −log10 of the molar value. Read-outs that look alike come from different tables or passages of the source.
# Key:
# [1] = molecular target: T1, HIV-1 protease (Human immunodeficiency virus type 1 group M subtype B, UniProt P04585); assay: HIV-1 protease enzyme inhibitory assay (protocol of Toth and Marshall); assay type: biochemical
# T1 construct: The HIV aspartic protease plays a central role in the life cycle of the virus; It cleaves the virally encoded polyprotein
# Source text: Inhibitors were designed to make additional interactions in the S2-subsite of the protease, especially with the Gly48 backbone atoms in the flap region of the enzyme. All inhibitors in Table 1 were first evaluated in the enzyme inhibitory assay developed by Toth and Marshall (Toth and Marshall, Int. J. Pept. Protein Res. 1990, 36, 544-550). […] The 3-(S)-hydroxy Cp-THF ligand was also investigated in combination with other sulfonamide substituents.
# All inhibitors were first tested for their enzyme inhibitory potency using the assay protocol developed by Toth and Marshall.
# [2] = test system: HIV-1LAI; assay: In vitro antiviral assay, MT-2 cells exposed to HIV-1LAI, MTT assay; assay type: cell-based; settings: for loss of antiviral activity (higher IC50) compared to 22: relative to inhibitor 22
# [3] = Human immunodeficiency virus 1, MT2, read-out: ID50, Table 2, antiviral activity
# [4] = Human immunodeficiency virus 1, MT2, Table 1, MT-2 cells, 100 TCID50s of HIV-1LAI, MTT assay, means of at least two experiments
# [5] = read-out: Ki / enzyme inhibitory potency
# [6] = Human immunodeficiency virus 1, MT2, read-out: antiviral IC50
structure (smiles),measurement,setting,value
CON[C@@H]1CO[C@@H]2C[C@H](OC(=O)N[C@@H](Cc3ccccc3)[C@H](O)CN(CC(C)C)S(=O)(=O)c3ccc(OC)cc3)C[C@H]12,pKi,"[1]; Table 2, read-out: Ki",10.06
same,pIC50,[2]; [3],7.09
CC(C)CN(C[C@@H](O)[C@H](Cc1ccccc1)NC(=O)O[C@@H]1C[C@@H]2[C@H](O)CO[C@@H]2C1)S(=O)(=O)c1ccc(N)cc1 [drawing 10],pKi,"[1]; Table 1, read-out: Ki",10.10
same,pIC50,[2]; [4],7.60
COC(=O)N[C@@H]1CO[C@@H]2C[C@H](OC(=O)N[C@@H](Cc3ccccc3)[C@H](O)CN(CC(C)C)S(=O)(=O)c3ccc(OC)cc3)C[C@H]12 [drawing 23],pIC50,[2]; [3],8.80
"CC(C)CN(C[C@@H](O)[C@H](Cc1ccccc1)NC(=O)O[C@@H]1C[C@@H]2[C@H](O)CO[C@@H]2C1)S(=O)(=O)c1ccc(N)cc1 [Inhibitor 123, (3S,3aR,5R,6aR)-3-Hydroxyhexahydro-2H-cyclopenta[b]furan-5-yl [(2S,3R)-4-(4-Amino-N-isobutylphenylsulfonamido)-3-hydroxy-1-phenylbutan-2-yl]carbamate]",loss of antiviral activity (higher IC50) compared to 22,[2],3 fold
COC(=O)N[C@H]1CO[C@@H]2C[C@H](OC(=O)N[C@@H](Cc3ccccc3)[C@H](O)CN(CC(C)C)S(=O)(=O)c3ccc(OC)cc3)C[C@H]12 [drawing 24],pKi,"[1]; Table 2, read-out: Ki",11.40
same,pIC50,[2]; [3],8.34
"CC(C)CN(C[C@@H](O)[C@H](Cc1ccccc1)NC(=O)O[C@@H]1C[C@@H]2[C@H](O)CO[C@@H]2C1)S(=O)(=O)c1ccc(CO)cc1 [Inhibitor 23, (3S,3aR,5R,6aR)-3-Hydroxyhexahydro-2H-cyclopenta[b]furan-5-yl {(2S,3R)-3-Hydroxy-4-[4-(hydroxymethyl)-N-iso-butylphenylsulfonamido]-1-phenylbutan-2-yl}carbamate]",pKi,"[1]; Table 1, read-out: Ki",10.22
same,pIC50,[2]; [4],7.72
same,loss of antiviral activity (higher IC50) compared to 22,[2],4 fold
"COc1ccc(S(=O)(=O)N(CC(C)C)C[C@@H](O)[C@H](Cc2ccccc2)NC(=O)O[C@@H]2C[C@@H]3C(=O)CO[C@@H]3C2)cc1 [Inhibitor 19a, (3aS,5R,6aR)-3-oxohexahydro-2H-cyclopenta[b]furan-5-yl (2S,3R)-3-hydroxy-4-(N-isobutyl-4-methoxyphenylsulfonamido)-1-phenylbutan-2-ylcarbamate]",pKi,"[1]; Table 1, read-out: Ki",9.02
same,pIC50,"[2]; Human immunodeficiency virus 1, MT2, Table 1, MT-2 cells, 100 TCID50s of HIV-1LAI, MTT assay, means of at least two experiments, read-out: IC50",7.85
"COc1ccc(S(=O)(=O)N(CC(C)C)C[C@@H](O)[C@H](Cc2ccccc2)NC(=O)O[C@@H]2C[C@@H]3[C@@H](NC(C)=O)CO[C@@H]3C2)cc1 [Inhibitor 19h, (3′R,3′aR,5′R,6′aR)-3-acetamidohexahydro-2H-cyclopenta[b]furan-5-yl (2S,3R)-3-hydroxy-4-(N-isobutyl-4-methoxyphenylsulfonamido)-1-phenylbutan-2-yl-carbamate]",pKi,"[1]; Table 2, read-out: Ki",11.12
same,pKi,[1]; [5],11.15
same,pIC50,[2]; [3],7.51
same,pIC50,[2]; [6],7.51
COc1ccc(S(=O)(=O)N(CC(C)C)C[C@@H](O)[C@H](Cc2ccccc2)NC(=O)O[C@@H]2C[C@@H]3[C@H](N(C)C)CO[C@@H]3C2)cc1,pKi,"[1]; Table 2, read-out: Ki",7.90
"CC(C)(C)NC(=O)[C@@H]1C[C@@H]2CCCC[C@@H]2CN1C[C@@H](O)[C@H](Cc1ccccc1)NC(=O)[C@H](CC(N)=O)NC(=O)c1ccc2ccccc2n1 [SQV, saquinavir, reference compound]",pIC50,[2]; [4],7.82
"COc1ccc(S(=O)(=O)N(CC(C)C)C[C@@H](O)[C@H](Cc2ccccc2)NC(=O)O[C@@H]2C[C@@H]3[C@@H](C)CO[C@@H]3C2)cc1 [Inhibitor 19f, (3R,3aR,5R,6aR)-3-Methylhexahydro-2H-cyclopenta[b]furan-5-yl [(2S,3R)-3-Hydroxy-4-(N-isobutyl-4-methoxyphenylsulfonamido)-1-phenylbutan-2-yl]carbamate]",pKi,"[1]; Table 1, read-out: Ki",10.77
"COc1ccc(S(=O)(=O)N(CC(C)C)C[C@@H](O)[C@H](Cc2ccccc2)NC(=O)O[C@@H]2C[C@@H]3[C@H](NC(C)=O)CO[C@@H]3C2)cc1 [Inhibitor 19g, (3S,3aR,5R,6aR)-3-acetamidohexahydro-2H-cyclopenta[b]furan-5-yl (2S,3R)-3-hydroxy-4-(N-isobutyl-4-methoxyphenylsulfonamido)-1-phenylbutan-2-yl-carbamate]",pKi,[1]; [5],11.15
same,pIC50,[2]; [3],7.67
same,pIC50,[2]; [6],7.60
